# Measurements published in ChEMBL document CHEMBL1150454, “Synthesis, bioactivity, and DNA-cleaving ability of desferrioxamine B-nalidixic acid and anthraquinone carboxylic acid conjugates” (Bioorg Med Chem Lett, 1995).
# What was measured:
# Type in all cases: functional, organism-based
# Plasmodium falciparum [1] = assay: In vitro antimalarial activity against Plasmodium falciparum D6
# Plasmodium falciparum [2] = assay: In vitro antimalarial activity against Plasmodium falciparum W2
# Plasmodium falciparum [3] = assay: In vitro antimalarial activity against Plasmodium falciparum W2; Not significant
# Plasmodium falciparum [4] = assay: In vitro antimalarial activity against Plasmodium falciparum D6; Not significant
IC50 (Plasmodium falciparum [1]),IC50 (Plasmodium falciparum [2]),IC50 (Plasmodium falciparum [3]),IC50 (Plasmodium falciparum [4]),SMILES
~0.6 µg/mL,~0.6 µg/mL,–,–,CCn1cc(C(=O)NCCCCCN(O)C(=O)CCC(=O)NCCCCCN(O)C(=O)CCC(=O)NCCCCCN(O)C(C)=O)c(=O)c2ccc(C)nc21
–,–,Not Active,Not Active,CC(=O)N(O)CCCCCNC(=O)CCC(=O)N(O)CCCCCNC(=O)CCC(=O)N(O)CCCCCNC(=O)c1ccc2c(c1)C(=O)c1ccccc1C2=O
